From patent US20120003262A1, “ANTICANCER HEALTH FOOD CONTAINING PHELLINUS LINTEUS AND VEGETABLE WORMS” (HAN KOOK SHIN YAK CO., LTD., priority 2008, published 2012) come the findings set out here.

For this experiment, the system named is lung cancer cell (Lewis Lung Carcinoma: LLC). Nature of the experiment: Anticancer animal test: Lewis Lung Carcinoma transplanted to mice, tumor volume and weight after 14 days of administration. It is filed as in vivo, mouse. The following applies: LLC-transplanted BDF1 male mice, extracts 200 mg/kg orally daily, Taxol 50 mg/kg intraperitoneally daily, for 14 days. The method, then: In order to test an anticancer effect of the mixture extract of Phellinus linteus and vegetable worms, from Examples 1 to 7, and Comparative 1, an animal test was carried out. A mouse used for the experiment was bought from Jung Ang Lab. Animal Inc. (black, Japan, BDF1 male, weight: 20±2 g). The breeding temperature was 22±2° C., and solid feed stuff (Samyang feed Co.) and water were sufficiently supplied. […]
A solvent for the extraction was an extra pure reagent (E.P.). For the test sample, a sterilized saline solution manufactured by Daihan Pharm Co. Ltd. was used. For the culture of a cancer cell, an RPMI 1640 medium (WelGENE Inc.) was used, and Trypsin-EDTA was manufactured by GIBCO. Besides, a test tube required for cell culture, a culture flask, and a filter for obtaining a cancer cell were manufactured by Falcon. Devices used for cancer transplantation were disinfected at 120° C. for 30 min, and a cancer volume was measured by a Digital Caliper.
A lung cancer cell (Lewis Lung Carcinoma: LLC) used for the experiment was distributed from the Korea Research Institute of Bioscience and Biotechnology. The lung cancer cell (Lewis Lung Carcinoma: LLC) was cultured by RPMI 1640 medium added with 10% FBS in a 37° C. incubator, and for the detachment from an attachment surface, Trypsin-EDTA was used. When the cells are filled up in a 200 ml culture flask, they were transplanted to two animals. After the cells were grown in vivo, they were used for an animal test.
In an anticancer animal test, a tumor grown up to a size of about 15×15×15 mm^3 was separated, and a cancer cell was separated from other cells by using a filer (Falcon). […] From the day after the cancer transplantation, for 14 days, powder obtained by mixing Phellinus linteus and vegetable worms at a weight ratio of 1:1 (Example 1), 1:3(Example 2), 3:1(Example 3), 1:5(Example 4), 5:1(Example 5), 1:10(Example 6), 10:1(Example 7) was orally administered daily to a black mouse (Japan) in an amount of 200 mg/kg. Meanwhile, as a positive control group, Taxol was intraperitoneally injected daily in an amount of 50 mg/kg once a day for 14 days. After 14 days, the administration of the extract powder of Phellinus linteus and vegetable worms was stopped, and a Digital Caliper was used to measure the results. […] After the measurement of a tumor volume, a tumor lump was obtained through an operation and its weight was measured. An inhibition ratio of tumor weight (IRTW) was calculated by (TW of control−TW of test)×100/TW of control.
All data were indicated by mean±S.D., and the analysis was carried out by Anova test. Also, when p values are 0.05 or less, they were determined to have significance.

`CC(=O)O[C@H]1C(=O)[C@@]2(C)[C@H]([C@H](OC(=O)c3ccccc3)[C@]3(O)C[C@H](OC(=O)[C@H](O)[C@@H](NC(=O)c4ccccc4)c4ccccc4)C(C)=C1C3(C)C)[C@]1(OC(C)=O)CO[C@@H]1C[C@@H]2O` [Taxol]: the “Tumor volume inhibiting ratio” value ((TV of control−TV of test)×100/TV of control) is recorded as 67%. Also, under “(TW of control−TW of test)×100/TW of control”, the “Tumor weight inhibiting ratio” value was 64%. Where the note is “mean±S.D., 5 mice”, this compound displayed a Tumor size of 649 ± 182 mm^3 and a Tumor weight of 0.61 ± 0.3 g.
